Here are results for eleven compounds from paper PMC9093066 (Bioorganic & Medicinal Chemistry, 2022).

The target in assay [1] is T1, NudF ADP-ribose pyrophosphatase (Escherichia coli, UniProt Q93K97).
T1 sequence (Q93K97 1-209): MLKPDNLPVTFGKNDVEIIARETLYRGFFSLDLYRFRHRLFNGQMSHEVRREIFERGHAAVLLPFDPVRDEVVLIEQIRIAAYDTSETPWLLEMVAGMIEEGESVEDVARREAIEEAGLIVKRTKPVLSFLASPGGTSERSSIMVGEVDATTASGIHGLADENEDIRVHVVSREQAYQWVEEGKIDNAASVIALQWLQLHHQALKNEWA
Put plainly: NudF-mediated counterscreen of ADPr-Glo assay. The assay is classed as biochemical. As to conditions: NudF only with free ADP-ribose.

Assay [2] addresses T2, SARS-CoV-2 Mac1 (Severe acute respiratory syndrome coronavirus 2, UniProt P0DTD1). The format is binding. The conditions noted are these: for SARS CoV2 Mac1 Alpha (IC50): AlphaScreen ADP-ribose binding, IC50 ± SD of three replicates. A general note: In Alpha technology, singlet oxygen from a donor bead excites a nearby acceptor bead.
Assay [3] concerns the target T2, SARS-CoV-2 Mac1. The assay is classed as binding. The conditions noted are these: DSF, 300 µM compound, ± SD of three replicates.
Assay [4] concerns panel of MAR binding proteins from viruses and humans.
Assay [5] has as its target T2, SARS-CoV-2 Mac1. The assay is classed as biochemical. The conditions noted are these: ADPr-Glo dose response, n = 2.
For another assay, the system named is Mac1. As to conditions: cited from earlier work.

For `O=C(O)C1CCCN(c2ncnc3[nH]ccc23)C1` (centres unmarked) [Compound 6g, 1-(7H-pyrrolo[2,3–d]pyrimidin-4-yl)piperidine-3-carboxylic acid], the “activity in NudF-mediated counterscreen” value in assay [1] is “Neither compound demonstrated any activity”. With `O=C(O)C1CCN(c2ncnc3[nH]ccc23)CC1` [Compound 6h, 1-(7H-pyrrolo[2,3–d]pyrimidin-4-yl)piperidine-4-carboxylic acid], the “fold improvement of potency over the initial fragment” value at SARS-CoV-2 Mac1 [2] (vs fragment 1) is recorded as about 10 fold. The “Δ Tm (°C) @300 µM” value on SARS-CoV-2 Mac1 [3] was over 1 °C. For the compound `COC(=O)[C@@H]1CN(c2ncnc3[nH]ccc23)CCN1.O=C(O)C(F)(F)F` [Compound 10a, Methyl (S)-4-(7H-pyrrolo[2,3–d]pyrimidin-4-yl)piperazine-2-carboxylate ●TFA], the “SARS CoV2 Mac1 Alpha (IC50)” value on SARS-CoV-2 Mac1 [2] is listed as “Inactive”.

Consider `CCOC(=O)[C@H](CC(C)C)Nc1ncnc2[nH]ccc12` [Compound 14b, Ethyl (7H-pyrrolo[2,3–d]pyrimidine-4-yl)-L-leucinate], for which the “SARS CoV2 Mac1 Alpha (IC50)” value on SARS-CoV-2 Mac1 [2] was “completely inactive”.

In the case of `CC(C)C[C@H](Nc1ncnc2[nH]ccc12)C(=O)O` [Compound 15b, (7H-pyrrolo[2,3–d]pyrimidine-4-yl)-L-leucinate], at SARS-CoV-2 Mac1 [2], the “SARS CoV2 Mac1 Alpha (IC50)” value is “completely inactive”. In the case of `O=C(O)[C@H](Cc1c[nH]c2ccccc12)Nc1ncnc2[nH]ccc12` [Compound 15c, (7H-pyrrolo[2,3–d]pyrimidin-4-yl)-L-tryptophan], the “activity in NudF-mediated counterscreen” value in assay [1] is “Neither compound demonstrated any activity”. For the same compound, the “selectivity in panel of ADP-ribose binding proteins” value in assay [4] is given as “remarkably selective for coronavirus macrodomains”. Moreover, at SARS-CoV-2 Mac1 [5], the “inhibition of Mac1 enzyme (ADP-ribosylhydrolase) activity” value was “dose-dependent inhibition”. Consider `O=C(O)CNc1ncnc2[nH]ccc12` [Compound 15d, (7H-pyrrolo[2,3–d]pyrimidin-4-yl)glycine], for which, on SARS-CoV-2 Mac1 [2], the “SARS CoV2 Mac1 Alpha (IC50)” value is on record as “did not demonstrate any inhibitory effect”.

Regarding `O=C(O)[C@@H]1CCC[C@@H]1Nc1ncnc2[nH]ccc12` [Compound 19, (1R, 2S)-2-((7H-pyrrolo[2,3–d]pyrimidin-4-yl)amino)cyclopentane-1-carboxylic acid], the “Δ Tm (°C) @300 µM” value at SARS-CoV-2 Mac1 [3] is over 1 °C. In the case of `c1ccc2c(CCNc3ncnc4[nH]ccc34)c[nH]c2c1` [Compound 20, N-(2-(1H-indol-3-yl)ethyl)-7H-pyrrolo[2,3–d]pyrimidin-4-amine], the “fold less potent than 15c” value at SARS-CoV-2 Mac1 [2] is given as “approximately 7 fold”.

For `Cc1ccc(C(=O)Nc2ccc(S(=O)(=O)O)c3cc(S(=O)(=O)O)cc(S(=O)(=O)O)c23)cc1NC(=O)c1cccc(NC(=O)Nc2cccc(C(=O)Nc3cc(C(=O)Nc4ccc(S(=O)(=O)O)c5cc(S(=O)(=O)O)cc(S(=O)(=O)O)c45)ccc3C)c2)c1` [Suramin], in the assay with Mac1, the “stabilization of the protein in DSF assay” value is on record as “concentration dependent stabilization of the protein”. In the case of “Methyl (R)-4-(7H-pyrrolo[2,3–d]pyrimidin-4-yl)piperazine-2-carboxylate ●TFA [Compound 10b]”, the “SARS CoV2 Mac1 Alpha (IC50)” value on SARS-CoV-2 Mac1 [2] is recorded as “Inactive”.
